In patent US12128016B2, “Vanin-1 inhibitor” (EDUCATIONAL FOUNDATION OF OSAKA MEDICAL AND PHARMACEUTICAL …, priority 2021, dated 2024):
pIC50: −log10 of the molar value.

Assays:
Vanin-1 [1] = molecular target: T1, Vanin-1 (Homo sapiens, UniProt O95497); assay: In vitro measurement of Vanin-1 inhibitory activity, screening using human serum with Pantothenate-AMC substrate; assay type: biochemical; details: for pIC50: 37° C., 30 minutes incubation, Pantothenate-AMC; for Vanin-1 inhibitory activity relative to that of Comparative Example 1: ratio to Comparative Example 1
T1 construct: For use as human serum, “normal human serum” was purchased from KOHJIN BIO (product number: 12181211); tissue KOHJIN BIO 12181211; host or cells: normal human serum
T1 sequence (O95497 22-491): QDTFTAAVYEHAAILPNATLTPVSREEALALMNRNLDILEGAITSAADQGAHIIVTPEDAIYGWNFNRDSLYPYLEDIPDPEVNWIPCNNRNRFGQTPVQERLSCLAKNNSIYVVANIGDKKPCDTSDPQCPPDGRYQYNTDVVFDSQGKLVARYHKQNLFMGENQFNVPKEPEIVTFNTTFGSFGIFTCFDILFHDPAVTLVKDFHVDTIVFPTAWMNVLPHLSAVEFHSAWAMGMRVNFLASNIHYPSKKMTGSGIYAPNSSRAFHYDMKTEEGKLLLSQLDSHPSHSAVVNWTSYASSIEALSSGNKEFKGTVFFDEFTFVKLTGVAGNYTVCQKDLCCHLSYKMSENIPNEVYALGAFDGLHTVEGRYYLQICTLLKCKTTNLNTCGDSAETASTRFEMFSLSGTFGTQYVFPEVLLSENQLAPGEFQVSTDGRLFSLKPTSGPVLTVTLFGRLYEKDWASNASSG
Method: The pantotheine ketone derivatives obtained in Examples 1 to 5 and Comparative Examples 1 to 9 were used as a Vanin-1 inhibitor to measure Vanin-1 inhibitory activity in vitro as follows.
A 9 g/package phosphate buffer powder (1/15 molL^−1=66 mM, Wako Pure Chemical) was dissolved in 1 L of distilled water to produce an assay buffer. Pantothenate-AMC serving as a substrate was synthesized according to protocols as described in Analytical Biochemistry 2010; 399: 284-292. For use as human serum, “normal human serum” was purchased from KOHJIN BIO (product number: 12181211).
Vanin-1 inhibitory activity was measured in accordance with the following steps 1 to 8 of: • 1. introducing 79 μL of assay buffer in a 96-well black plate, • 2. adding 10 μL of human serum to the wells containing the assay buffer, • 3. adding 1 μL of each Vanin-1 inhibitor (10^−7 M to 10^−2 M in DMSO) or 1 μL of DMSO to the wells from the step [2.], • 4. adding 10 μL of 1 mM Pantothenate-AMC to the wells from the step [3.], • 5. measuring at Ex=390 nm and Ex=465 nm before incubation, • 6. incubating at 37° C. for 30 minutes, • 7. measuring at Ex=390 nm and Ex=465 nm, • 8. subtracting fluorescence after 0 minute incubation, from fluorescence after 30 minutes incubation, to express Vanin-1 inhibitory activity of each inhibitor in percent with respect to that of DMSO being 100%. (Results)

Vanin-1 [2] = assay: In vivo measurement of Vanin-1 inhibitory activity in sera and kidney tissues using hamsters; set-up: species or system Syrian hamsters; details: hamster, 10 mg/kg subcutaneous injection; for Vanin-1 activity in kidney tissue extracts 1 hour after administration / Vanin-1 activity in kidney tissue extracts 4 hours after administration: kidney tissue extract; for Vanin-1 activity in kidney tissue extracts 1 hour after administration: 1 hour (FIG. 5b); for Vanin-1 activity in kidney tissue extracts 4 hours after administration: 4 hours (FIG. 5b); for Vanin-1 activity in sera 1 hour after administration / Vanin-1 activity in sera 4 hours after administration: serum; for Vanin-1 activity in sera 1 hour after administration: 1 hour (FIG. 5a); for Vanin-1 activity in sera 4 hours after administration: 4 hours (FIG. 5a)
Method: The pantotheine ketone derivatives obtained in Example 1 and Comparative Example 1 were used as a Vanin-1 inhibitor to measure Vanin-1 inhibitory activity in vivo as follows.
An assay buffer and substrate were the same as those used in the in vitro measurement of activity described above. Hamsters used were 6-week-old male Syrian hamsters purchased from Japan SLC.
The pantotheine ketone derivatives of Example 1 and Comparative Example 1 at a dose of 10 mg/kg were each administered by subcutaneous injection in the backs of different hamsters, and 1 hour and 4 hours after the administration, blood collection and kidney removal were performed under anesthesia. The blood and kidney of the normal hamsters were indicated as Normal. The blood was refrigerated overnight at 4° C. and then centrifuged at 3000 rpm for 20 minutes at 4° C., and the supernatant was used as serum. The kidney was homogenized in an assay buffer in an amount 10 times the tissue weight, and centrifuged at 8000 rpm for 30 minutes at 4° C., and the supernatant was used as a kidney tissue extract. Proteins in the kidney tissue were quantified by using a BCA protein assay (Thermo Fishers Scientific).
Vanin-1 inhibitory activity was measured in accordance with the following steps 1 to 7 of: • 1. introducing 80 μL of assay buffer in a 96-well black plate, • 2. adding 10 μL of serum or kidney tissue extract to the wells containing the assay buffer, • 3. adding 10 μL of 1 mM Pantothenate-AMC to the wells from the step [2.], • 4. measuring at Ex=390 nm and Ex=465 nm before incubation, • 5. incubating at 37° C. for 30 minutes, • 6. measuring at Ex=390 nm and Ex=465 nm, • 7. subtracting fluorescence after 0 minute incubation, from fluorescence value after 30 minutes incubation, and calculating enzyme unit (U) using as an index the amount of AMC produced per minute with respect to the fluorescence value of 40 μM AMC as a reference. The Vanin-1 activity in the kidney tissue extracts was further calculated to normalize by the protein concentration. (Results)

[3] = system: vascular intimal thickening after aorta transplantation; details: rat; 3 mg/mL in drinking water (Non-patent literature 2); cited from earlier work

| SMILES | pIC50 (Vanin-1 [1]) | Vanin-1 activity in kidney tissue extracts 1 hour after administration (Vanin-1 [2]) | Vanin-1 activity in kidney tissue extracts 4 hours after administration (Vanin-1 [2]) | Vanin-1 activity in sera 1 hour after administration (Vanin-1 [2]) | Vanin-1 activity in sera 4 hours after administration (Vanin-1 [2]) | Effect on vascular intimal thickening after aorta transplantation [3] | Vanin-1 inhibitory activity in vitro (comparison in words, FIGS. 1 to 4) (Vanin-1 [1]) | Vanin-1 inhibitory activity relative to that of Comparative Example 1 (Vanin-1 [1]) |
| --- | --- | --- | --- | --- | --- | --- | --- | --- |
| CC(C)(CO)[C@@H](O)C(=O)NCCC(=O)Cc1ccccc1 [Comparative Example 1, reference compound] | 6.11 | same as the normal value | same as the normal value | suppressed | returned to normal value | suppressive effect on vascular intimal thickening |  |  |
| CC(C)(CO)[C@@H](O)C(=O)NCCC(=O)Cc1ccc2ccccc2c1 [Comparative Example 6] |  |  |  |  |  |  | lower than that of Comparative Example 1 |  |
| CC(C)(CO)[C@@H](O)C(=O)NCCC(=O)Cc1cccc2ccccc12 [Comparative Example 7] |  |  |  |  |  |  | lower than that of Comparative Example 1 |  |
| C/C(O)=C/C(=O)CCNC(=O)[C@H](O)C(C)(C)CO [Comparative Example 8] |  |  |  |  |  |  | lower than that of Comparative Example 1 |  |
| C=C=CC(=O)CCNC(=O)[C@H](O)C(C)(C)CO [Comparative Example 9] |  |  |  |  |  |  | lower than that of Comparative Example 1 |  |
| CC(C)(CO)[C@@H](O)C(=O)NCCC(=O)Cc1ccc(OC(F)(F)F)cc1 [Example 1, (R)-2,4-dihydroxy-3,3-dimethyl-N-[3-oxo-4-(4-trifluoromethoxyphenyl)butyl]butanamide] | 7.46 | able to inhibit Vanin-1 | returned to the normal value | suppressed Vanin-1 activity lower than that of Comparative Example 1 | suppressed below the normal value |  | very high Vanin-1 inhibitory activity | about 20 times |
| CC(C)(CO)[C@@H](O)C(=O)NCCC(=O)Cc1ccc(F)cc1 [Example 2] | 6.92 |  |  |  |  |  | very high Vanin-1 inhibitory activity | about 6 times |
